Patent US10959430B2, “Compositions and methods for repelling coleopterans” (ISCA TECHNOLOGIES, INC., priority 2015, dated 2021)

Experiments:
[1] = tested on: CBB (coffee berry borer, Hypothenemus hampei); assay: Dislodging of CBB from coffee berries in a sealed petri dish; type: in vivo; conditions: both male and female CBBs
Source text: Our testing involved application of approximately 0.2 g of SPLAT Verb in approximately a 6-inch petri dish. (SPLAT Verb is loaded with 10% verbenone by weight.) This area would correspond to 0.0000045ac of land; therefore, our field application rate would be approximately 44 kg of SPLAT Verb (4,400 g of verbenone) per acre. Coffee berries, commonly used to rear CBB, were placed in the petri dish. The 0.2 g of SPLAT Verb was introduced into the sealed petri dish. We then went on to measure the times when CBB dislodged or exited the berry. The number dislodged is a summation of the total dislodged at that point in time. Our data (as shown in Table 3) verifies that CBB exited their preferred host and, after dislodging, maintained high activity levels without re-entering the berries.

[2] = tested on: CBB; conditions: dosage and verbenone type not given in the study; cited from earlier work

Compound | effect of exposure on male and female CBBs in the coffee berry [1] | response of CBB to path containing verbenone [2]
CC1=CC(=O)[C@H]2C[C@@H]1C2(C)C [(1S)-(−)-Verbenone] | dislodge from the coffee berry | –
CC1=CC(=O)[C@@H]2C[C@H]1C2(C)C [verbenone] | – | unattractive
